Reference: patent publication US7847152B2, “Use of tryptophan indole and anthranilate analogs as plant transformation selection agents” (The Board of Trustees of the University of Illinois, priority 2006, dated 2010)

Key:
Assay type in all cases: biochemical, Nicotiana tabacum
[1] = system: AS α subunit (feedback insensitive ASA2) of transgenic tobacco lines; assay: AS α subunit activity, inhibition by Trp, ASA2 transgenic lines (100 mM NH4Cl); settings: 300 μM Trp, pC2ASA2 lines
Method: (§1) Approximately 2 g of leaves was homogenized with 1.5 volume of ice-cold extraction buffer as described in Bernasconi et al., (1994). The homogenate was centrifuged at 30,000 g at 4° C. for 10 min. The supernatant was desalted using a Econo-Pac 10 DG column (Bio-Rad, Hercules, Calif.). Protein concentration was determined using a protein dye-binding assay kit (Bio-Rad, Hercules, Calif.). The supernatant was combined with two volumes of assay buffer as described previously (Bernasconi et al., 1994) but without NH4Cl. AS enzyme activity was measured as the conversion rate of chorismate to anthranilate as described previously (Song et al., 1998). Either 100 mM NH4Cl or 10 mM glutamine was added to the assay mixture to determine α-subunit activity or AS holoenzyme activity respectively and Trp at different concentrations. Duplicate extracts of each line were analyzed.

[2] = system: AS holoenzyme of ASA2 transgenic tobacco lines; assay: AS holoenzyme activity, inhibition by Trp, ASA2 transgenic lines (10 mM Gln); settings: 300 μM Trp, pC2ASA2 lines
Method: as §1

[3] = system: AS α subunit of WT tobacco; assay: AS α subunit activity, inhibition by Trp, wild type (100 mM NH4Cl as amino donor); settings: 10 μm Trp, Example 6
Method: as §1

[4] = system: anthranilate synthase (AS) holoenzyme of WT tobacco; assay: AS holoenzyme activity, inhibition by Trp, wild type (10 mM Gln as amino donor)
Method: as §1

## N[C@@H](Cc1c[nH]c2ccccc12)C(=O)O [Trp, tryptophan]
[1]
  α-subunit activity retained by line #6 and line #7: about 40%
[2]
  holoenzyme activity retained by line #6 and line #7: about 40%
[3]
  WT AS α subunit activity: almost completely inhibited
[4]; 300 μM Trp, Example 9
  WT relative holoenzyme activity: almost completely inhibited
[4]; 10 μm Trp, Example 6
  WT AS holoenzyme activity: almost completely inhibited
